Experimental data taken from US10131639B2, “Formulations of 2-(tert-butylamino)-4-((1R,3R,4R)-3-hydroxy-4methylcyclohexylamino)-pyrimidine-5-carboxamide” (Signal Pharmaceuticals, LLC, priority 2014, dated 2018).
Where two headings read alike, the source gives them in different places.

Assays:
[1] = Phase 1 study Part 1: plasma pharmacokinetics after multiple oral doses of Compound 1 as AIC (QD×6 days) in healthy subjects; assay type: in vivo, human; details: for AUC / concentration at 24 h / Cmax: geometric mean (geometric CV%); for AUC: read-out: AUC0-τ (τ = 24 hours); for concentration at 24 h: read-out: Cmin (plasma concentration at 24 hours postdose); for Cmax: healthy subjects
Protocol: Part 1 was an open label, multiple dose, three period, fixed sequence study to evaluate the effect of Compound 1 on JNK activity following UV irradiation.
On Day 1, after a minimum of an 8-hour fast, subjects received the first dose of Compound 1. All subjects received the following oral doses of Compound 1 in the fixed sequence below: • Treatment A: 60 mg Compound 1 as AIC, QD×6 days; • Treatment B: 160 mg Compound 1 as AIC, QD×6 days; and • Treatment C: 400 mg Compound 1 as AIC, QD×6 days.
All subjects received the following oral doses of Compound 1 as AIC: • Days 1 through 6: Treatment A: 60 mg Compound 1 AIC, QD×6 days; • Days 7 through 12: Treatment B: 160 mg Compound 1 AIC, QD×6 days; and • Days 13 through 18: Treatment C: 400 mg Compound 1 AIC, QD×6 days.
The treatments were administered in the morning following an overnight fast of at least 8 hours. All doses were administered with 240 mL of noncarbonated, room temperature water. Water was allowed as desired except for 1 hour before and 1 hour after drug administration. The first meal following the morning dose on the sixth day of each dosing period was 4 hours postdose. On all other dosing days, the next meal/snack was served after a minimum 2 hours after dosing.
Blood samples for Compound 1 plasma PK analysis were collected at the following time points on Days 6, 12, and 18: predose and 0.5, 2, 4, 6, 10, 12, and 24 hours postdose.
Concentrations of Compound 1 in plasma were measured using a validated liquid chromatography tandem mass spectrometry (LC-MS/MS) assay. In Part 2, concentrations of Compound 1 in whole blood were measured using a validated LC-MS/MS method.
Plasma and whole blood PK parameters were derived for Compound 1 by noncompartmental analysis. Actual sampling times were used in the calculation of PK parameters.
AUCτ: AUC from time zero to tau, where tau is the dosing interval.
(§1) Cmax: Maximum observed plasma concentration.
Cmin: Minimum observed plasma concentration.

[2] = Phase 1 study Part 2: single-dose plasma pharmacokinetics, relative bioavailability (tablet vs AIC) and food effect in healthy subjects; assay type: in vivo, human
Protocol: Part 2 was an open label, randomized, crossover study with three periods. The study consisted of a screening phase (Days −21 to −2), baseline (Day −1), three treatment/assessment periods, and a follow up phone call.
Twelve eligible subjects reported to the study center on Day −1 of Period 1 for confinement and baseline assessments.
All subjects fasted overnight for at least 10 hours prior to dosing. For Treatment F, subjects received a standard high-fat breakfast 30 minutes before dosing. Dosing occurred 30 minutes (±5 minutes) after serving the meal.
Treatments D and E were administered in the morning following an overnight fast of at least 10 hours. Subjects who received Treatments D and E (fasted) continued to fast for at least 4 hours after dosing. For Treatment F, subjects received a standard high fat (approximately 50% of the total caloric content of the meal), high calorie (approximately 800 to 1000 calories) breakfast 30 minutes before dosing. The meal derived approximately 150, 250, and 500 to 600 calories from protein, carbohydrates, and fat, respectively. Subjects consumed the entire meal within 30 minutes of serving. Dosing occurred 30 minutes (±5 minutes) after serving the meal.
Actual sampling times were used in the calculation of PK parameters.
AUCt: AUC from time zero to the last quantifiable concentration.
AUC∞: AUC from time zero extrapolated to infinity.
as §1
CL/F: Apparent total plasma clearance when dosed orally.
Vz/F: Apparent total volume of distribution when dosed orally.
t1/2: Terminal phase elimination half-life.
Geometric least squares (LS) means, ratio (fed/fasted) and 90% confidence intervals (CIs) of the ratio of geometric LS means were from an analysis of variance (ANOVA) model with treatment, period, and sequence as fixed effects, and subject nested within sequence as a random effect on the natural log-transformed pharmacokinetics.
The median, median difference (fed-fasted), and 90% confidence interval of the median difference were from the Hodges-Lehmann estimate.

[3] = human, plasma, Treatment A: 60 mg as AIC, oral QD×6 days, N=15
[4] = human, plasma, Treatment B: 160 mg as AIC, oral QD×6 days, N=15
[5] = human, plasma, Treatment C: 400 mg as AIC, oral QD×6 days, N=15
[6] = 200 mg tablet vs 2×100 mg capsules, single oral dose, fasted
[7] = Comparison E/D: 200 mg tablet fasted vs 2×100 mg AIC fasted
[8] = Comparison F/E: 200 mg tablet fed vs fasted

In the case of C[C@@H]1CC[C@@H](Nc2nc(NC(C)(C)C)ncc2C(N)=O)C[C@H]1O [Compound 1, 2-(tert-butylamino)-4-((1R,3R,4R)-3-hydroxy-4-methylcyclohexylamino)-pyrimidine-5-carboxamide], the “increase of systemic exposure (AUC and Cmax) with dose” value ([1]; dose increased from 60 mg to 400 mg, multiple oral doses) was “more than dose-proportional”, the half-life ([1]; human, plasma, oral, following multiple doses (60-400 mg QD), read-out: mean terminal half life) was 14 to 21 h and the AUC [1, 3] was 2290 ng·h/mL. The concentration at 24 h [1, 3] was 22 ng/mL, the Tmax ([1]; human, plasma, Treatment A: 60 mg as AIC, oral QD×6 days, median (minimum, maximum), N=15, read-out: Tmax) was 1.95 h and the AUC [1, 4] was 8560 ng·h/mL. For the same compound, the concentration at 24 h [1, 4] was 65 ng/mL, the Tmax ([1]; human, plasma, Treatment B: 160 mg as AIC, oral QD×6 days, median (minimum, maximum), N=15, read-out: Tmax) was 1.95 h and the AUC [1, 5] was 31300 ng·h/mL. For the same compound, the concentration at 24 h [1, 5] was 212 ng/mL, the Tmax ([1]; human, plasma, Treatment C: 400 mg as AIC, oral QD×6 days, median (minimum, maximum), N=15, read-out: Tmax) was 1.97 h and the Tmax ([1]; human, plasma, following single or multiple oral doses at the dose levels evaluated, postdose, read-out: median Tmax) was 1 to 4 h. It also gave a Cmax ([1]; human, Treatment A: 60 mg as AIC, oral QD×6 days, plasma, N=15) of 419 ng/mL, a Cmax ([1]; human, Treatment B: 160 mg as AIC, oral QD×6 days, plasma, N=15) of 1460 ng/mL and a Cmax ([1]; human, Treatment C: 400 mg as AIC, oral QD×6 days, plasma, N=15) of 4460 ng/mL. For the same compound, the “AUCt and AUC∞ of tablet compared to the capsules” value [2, 6] was “equivalent”, the “Cmax of tablet lower relative to the capsule formulation” value [2, 6] was roughly 17% and the “AUCt, Ratio (%) of Geometric Means” value [2, 7] was 92.6%. For the same compound, the “AUC∞, Ratio (%) of Geometric Means” value [2, 7] was 92.9%, the “Cmax, Ratio (%) of Geometric Means” value [2, 7] was 82.9% and the “AUCt, Ratio (%) of Geometric Means” value [2, 8] was 100.6%. For the same compound, the “AUC∞, Ratio (%) of Geometric Means” value [2, 8] was 100.8%, the “Cmax, Ratio (%) of Geometric Means” value [2, 8] was 106.4% and the “AUCτ (time 0 to the last quantifiable concentration)” value ([2]; Treatment F: 1×200 mg formulated tablet, single oral dose, fed (high-fat breakfast), geometric mean (geometric CV%), N=12) was 12000 (27.4) ng · h/mL. It also gave an AUC(0-t) ([2]; human, 200 mg, Treatment D: 2×100 mg as AIC, single oral dose, fasted, healthy subjects, plasma, geometric mean (geometric CV%), N=12, read-out: AUCτ (time 0 to the last quantifiable concentration)) of 12900 ng·h/mL, a Tmax ([2]; human, plasma, oral, 200 mg, Comparison E/D: 200 mg tablet fasted vs 2×100 mg AIC fasted, read-out: tmax, Median Difference) of 0.01 h and a Tmax ([2]; human, plasma, oral, 200 mg, Comparison F/E: 200 mg tablet fed vs fasted, read-out: tmax, Median Difference) of 0.87 h. It also gave a Tmax ([2]; human, plasma, oral, postdose, for all doses (Part 1 and Part 2), read-out: median Tmax) of 1.95 to 3 h, an AUC(0-t) ([2]; human, plasma, po, 200 mg, Treatment D: 2×100 mg as AIC, single oral dose, fasted, N=12, read-out: AUCt, Geometric Mean (ANOVA LS mean)) of 12900 ng·h/mL and an AUC(0-inf) ([2]; human, plasma, po, 200 mg, Treatment D: 2×100 mg as AIC, single oral dose, fasted, N=12, read-out: AUC∞, Geometric Mean (ANOVA LS mean)) of 13100 ng·h/mL. The Cmax ([2]; human, plasma, po, 200 mg, Treatment D: 2×100 mg as AIC, single oral dose, fasted, N=12, read-out: Cmax, Geometric Mean (ANOVA LS mean)) was 2080 ng/mL and the Tmax ([2]; human, plasma, po, 200 mg, Treatment D: 2×100 mg as AIC, single oral dose, fasted, N=12, read-out: tmax, Median (Hodges-Lehmann estimate)) was 2 h.
